Like-named read-outs stand apart in the source and are kept apart here.
What was measured:
HepG2 cells = test: Cellular dose response assay, HepG2; assay type: cell-based, human
Method in brief: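 Viability is measured with CellTiter-Glo after cells plated at 1500 per well the previous day receive a 12-point, 2-fold dilution series for 48 h. DMSO is kept at 0.4% in every well, and HT-1080 is tested both with and without Fer-1.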

GPX4^U46C = target: T1, GPX4^U46C (Homo sapiens, UniProt P36969, U73C); test: Microscale thermophoresis (MST) binding; conditions: for EC50: half maximal effective concentration, covalent mechanism
T1 construct: made in house; host or cells: E. coli BL21-Gold (DE3)
T1 sequence (P36969 1-170 isoform P36969-2 U46C): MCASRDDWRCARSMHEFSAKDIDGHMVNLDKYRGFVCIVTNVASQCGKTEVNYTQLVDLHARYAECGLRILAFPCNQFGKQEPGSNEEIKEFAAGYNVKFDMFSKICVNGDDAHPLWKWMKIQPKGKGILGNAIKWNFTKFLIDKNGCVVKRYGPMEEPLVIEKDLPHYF
Protocol: The bacterial expression vector pET-15b-His-tagged-c-GPX4^U46C was prepared as previously described (Yang et al. 2016). The C-terminal His-tagged GPX4U46C protein was expressed in E. coli and purified according to a protocol modified from Scheerer et al. 2007. First, pET-15b-His-tagged-c-GPX4^U46C was transformed into XL10-Gold (Agilent #200314) E. coli ultracompetent cells for plasmid DNA production and isolated using QIAprep Spin Miniprep Kit (Qiagen). For protein expression, pET-15b-His-tagged-c-GPX4^U46C was then transformed into BL21-Gold (DE3) E. coli competent cells (Agilent #230132) and plated on LB agar with 100 μg/mL ampicillin. A starter culture was inoculated in 7 mL of LB medium with 100 μg/mL ampicillin using a single colony and allowed to grow in a 37° C. shaker (225 rpm) for 16 hours. 3 mL of the starter culture was added to 1 L of LB medium with 100 μg/mL ampicillin, which was then incubated in a 37° C. shaker (225 rpm) to an OD600 of 0.9. At that point, the incubation temperature was reduced to 15° C. and the culture was allowed to equilibrate for 1 hour. Expression of the recombinant enzyme was induced by addition of isopropyl β-D-1-thiogalactopyranoside (IPTG, 1 mM final concentration) overnight for 12-15 hours shaking at 225 rpm and 15° C. The next morning, cells were harvested by centrifugation at 4000 rpm and 4° C. for 20 minutes. The cell pellet was then frozen at −80° C. for at least 1 hour or until lysis. To lyse the cells, the cell pellet was resuspended with 25 mL of chilled lysis buffer (100 mM Tris pH 8.0, 300 mM NaCl, 20 mM imidazole, 3 mM TCEP, and 2.5 mini tablets of complete Protease Inhibitor Cocktail (Roche-Sigma #11836170001)) then lysed using an Emulsiflex C3 high-pressure homogenizer. To remove cell debris, the lysate was subjected to centrifugation at 10000 rpm and 4° C. for 20 minutes. The supernatant was centrifuged once more at the same conditions, then the clarified lysate was applied onto a 5-mL HisTrap HP column (Cytiva #17-5248-01), washed with 90% Buffer A (100 mM Tris pH 8.0, 300 mM NaCl, 5% glycerol, 3 mM TCEP) 10% Buffer B (Buffer A with 500 mM imidazole), then eluted with a continuous gradient (10-100% Buffer B). The protein was concentrated using Amicon Ultra-15 centrifugal filter units with a 10 kDa molecule weight cutoff (EMD Millipore #UFC901024) then further purified by FPLC on a size exclusion HiLoad Superdex 200 column (Cytiva) in crystallization buffer (20 mM Tris pH 8.0, 300 mM NaCl, 3 mM TCEP). The fractions containing 90-95% pure GPX4 protein, as evaluated by SDS-PAGE, were pooled and concentrated using the same Amicon centrifugal filter units as above to 5 mg/mL. Concentration was determined by Nanodrop. Protein was aliquoted into Eppendorf tubes, flash frozen using liquid nitrogen, and stored at −80° C. until use.
MST experiments were conducted using a Monolith NT.115 (Nanotemper Technologies) according to manufacturer instructions. To label the protein, 90 μL of 200 nM GPX4^U46C was combined with 90 μL of 100 nM RED-tris-NTA dye diluted in PBS buffer with 0.05% Tween 20 (PBST buffer). The mixture was incubated for 30 minutes at room temperature, followed by centrifugation for 10 minutes at 4° C. and 15,000×g. To assess binding of the compounds, a 16-point 2-fold dilution series in PBST buffer was prepared and mixed in a 1:1 ratio with the labeled protein solution for a final volume of 20 μL. The reaction mixture was loaded into standard treated capillary tubes and analyzed with the Monolith NT.115 at 40% LED power and 40% MST power with a laser-on time of 5 seconds. The data were analyzed in MO.Affinity Analysis v2.3 software.

Huh7 cells = test: Cellular dose response assay, Huh7; assay type: cell-based, human
Excerpt: HT-1080 (human [Homo sapiens] […] fibrosarcoma), A-673 (human [Homo sapiens] […] Ewing's sarcoma), and SK-HEP-1 (human [Homo sapiens] […] hepatic adenocarcinoma), cells were obtained from ATCC. Huh7 (human [Homo sapiens] […] hepatocellular carcinoma), HLF (human [Homo sapiens] […] hepatocellular carcinoma), HepG2 (human [Homo sapiens] […] hepatocellular carcinoma), cells were obtained from the Cancer Cell Bank at Columbia University Irving Medical Center. HT-1080, A-673, Huh-7, and HLF cells were grown in Dulbecco's Modified Eagle Medium (DMEM) supplemented with 10% heat inactivated fetal bovine serum (HI-FBS), 1% non-essential amino acids, and 1% penicillin streptomycin. HepG2 and SK-HEP-1 cells were grown in Eagle's Minimum Essential Medium (EMEM) supplemented with 10% HI-FBS, and 1% penicillin-streptomycin. All cells were cultured at 37° C. and 5% CO2.
HT-1080, HepG2, Huh7, HLF, and SK-HEP-1 cells were seeded into opaque white 384-well plates at 1500 cells per well then incubated at 37° C. with 5% CO2 overnight. The next day, compounds of interest were dissolved in DMSO and 12-point 2-fold dilution series were prepared with and without Fer-1. Cells were treated in triplicate (final DMSO concentration of 0.4% in all wells, including DMSO-only control wells) and incubated for a further 48 hours at 37° C. and 5% CO2. Cell viability was evaluated using CellTiter-Glo (Promega G7573) and luminescence was recorded on a Victor 5 plate reader. Data were analyzed in GraphPad Prism 9 and error bars represent standard deviation values for three technical replicates in a representative experiment.

[1] = compounds alone, Table 4, read-out: IC50 (uM) HEPG2^a
[2] = with fer-1, Table 4, read-out: IC50 (uM) HEPG2^b
[3] = compounds alone, Table 4, read-out: IC50 (uM) Huh7^a
[4] = with fer-1, Table 4, read-out: IC50 (uM) Huh7^b

COc1cccc2[nH]c(C(=O)n3ccnc3)cc12 [LOC1886, reference compound]
IC50 (HepG2 cells; Homo sapiens, HepG2, compounds alone, read-out: IC50 (μM) HEPG2^a): 88.6 µM
IC50 (HepG2 cells; Homo sapiens, HepG2, compounds and fer-1 1.0 μM, read-out: IC50 (μM) HEPG2^b): 29.1 µM
Kd (GPX4^U46C; MST): 263 µM
EC50 (GPX4^U46C): 263 µM

CC(C)(COC(=O)CCl)NC(=O)c1cc2ccccc2[nH]1 [QW-147]
IC50 (HepG2 cells; [1]): 69 µM
IC50 (HepG2 cells; [2]): 104 µM
IC50 (Huh7 cells; [3]): 98.7 µM
IC50 (Huh7 cells; [4]): 113 µM
EC50 (GPX4^U46C): 2.4 µM

CC(C)(COC(=O)CCl)NC(=O)c1cc2cc([N+](=O)[O-])ccc2[nH]1 [QW-148]
IC50 (HepG2 cells; [1]): > 400 µM
IC50 (HepG2 cells; [2]): > 400 µM
IC50 (Huh7 cells; [3]): 15.8 µM
IC50 (Huh7 cells; [4]): 55 µM
EC50 (GPX4^U46C): 39.7 µM

COc1ccc2cc(C(=O)NC(C)(C)COC(=O)CCl)[nH]c2c1 [QW-152]
IC50 (HepG2 cells; [1]): 81.4 µM
IC50 (HepG2 cells; [2]): 291 µM
IC50 (Huh7 cells; [3]): 59.6 µM
IC50 (Huh7 cells; [4]): 110 µM
EC50 (GPX4^U46C): 0.678 µM

CC(C)(COC(=O)CCl)NC(=O)c1cc2ccc(Br)cc2[nH]1 [QW-156]
IC50 (HepG2 cells; [1]): 25.4 µM
IC50 (HepG2 cells; [2]): 51.5 µM
IC50 (Huh7 cells; [3]): 17.8 µM
IC50 (Huh7 cells; [4]): 55.4 µM
EC50 (GPX4^U46C): 0.218 µM

Cn1nc(C(=O)NC(C)(C)COC(=O)CCl)c2ccc(Br)cc21 [QW-314]
IC50 (HepG2 cells; Homo sapiens, HepG2, read-out: IC50 (uM) HEPG2^a): 11.3 µM
IC50 (HepG2 cells; Homo sapiens, HepG2, read-out: IC50 (uM) HEPG2^b): 222 µM
times less potent than RSL3 in cells (Huh7 cells): approximately 10 times
GI50 (Huh7 cells; Homo sapiens, Huh-7): ~1 µM
IC50 (Huh7 cells; Homo sapiens, Huh-7, read-out: IC50 (uM) Huh7^a): 1.8 µM
IC50 (Huh7 cells; Homo sapiens, Huh-7, read-out: IC50 (uM) Huh7^b): 92.9 µM
Kd (GPX4^U46C; MST): 5.8 µM

COc1ccc(-c2ccc3c(C(=O)NC(C)(C)COC(=O)CCl)nn(C)c3c2)cc1Cl [QW-446]
Kd (GPX4^U46C; MST): 0.485 µM
times more potent than RSL3 (binding affinity) (GPX4^U46C; MST, relative to RSL3): 15 times

COC(=O)c1ccc([C@@H]2c3[nH]c4ccccc4c3C[C@@H](C(=O)OC)N2C(=O)CCl)cc1 [RSL3, reference compound]
IC50 (HepG2 cells; [1]): 5.4 µM
IC50 (HepG2 cells; compounds alone, Table 7, read-out: IC50 (uM) HEPG2^a): 5.4 µM
IC50 (HepG2 cells; compounds alone, read-out: IC50 (μM) HEPG2^a): 5.4 µM
IC50 (HepG2 cells; compounds and fer-1 1.0 μM, read-out: IC50 (μM) HEPG2^b): 32.2 µM
IC50 (HepG2 cells; [2]): 32.2 µM
IC50 (HepG2 cells; with fer-1, Table 7, read-out: IC50 (uM) HEPG2^b): 32.2 µM
IC50 (Huh7 cells; [3]): 0.6 µM
IC50 (Huh7 cells; compounds alone, Table 7, read-out: IC50 (uM) Huh7^a): 0.6 µM
IC50 (Huh7 cells; [4]): 34.4 µM
IC50 (Huh7 cells; with fer-1, Table 7, read-out: IC50 (uM) Huh7^b): 34.4 µM

Source: US20250248979A1, “NOVEL GPX4 INHIBITORS AND USES THEREOF” (THE TRUSTEES OF COLUMBIA UNIVERSITY IN THE CITY OF NEW YORK, priority 2022, published 2025)
